Assay results from patent US7169785B2, “Methods and compositions of novel triazine compounds” (Reddy US Therapeutics, Inc., priority 2001, dated 2007).
Where two headings read alike, the source gives them in different places.

What was measured:
[1] = system: Human aortic smooth muscle cells; experiment: Smooth muscle cell proliferation assay (anti-proliferation assay, perlecan); assay type: cell-based; settings: concentration not given
IL6 = experiment: Inflammation Data of Table 8: IL6 production compared to cells that did not receive compound (stimulus AGE or TNF not given); assay type: cell-based
Text: Additional bioactivity data for compounds of the present invention are presented in Table 8, where compounds that have at least the activity of effecting cellular proliferation or at least the activity of modulating inflammation activity, as measured by the assays taught herein, are provided. […] The inclusion of compounds in the categories of the Tables disclosed herein, including this Table, is not to be seen as limiting, in that compounds included in such Tables have at least the activity shown for inclusion in the Table and may have more or other activities. Nor are the Tables to be seen as limiting in that these are the only compounds disclosed herein that have that activity, representative compounds are shown in the Tables that have at least that particular activity for inclusion in the Table. One or more compounds disclosed herein have at least an activity that has utility in treatment of disease states. Note that any hydrogen atoms that are required for any atom to attain its usual valence in a structure presented in Table 8, whether a carbon atom or a heteroatom, should be inferred if it is not specifically indicated.

IL-6 [2] = experiment: AGE (G-HSA)-induced inflammatory response determined by IL-6 ELISA in HAEC; assay type: cell-based, human; settings: Homo sapiens; for activity at 10 µM: 24 h, Compds tested @ 10 uM, IL6, read-out: % IL6 production compare to AGE stimulation of IL6 (100%)
Experimental: Human aortic endothelial cells (HAEC, Clonetics) were cultured according to manufacturer in growth medium (Clonetics): basal medium containing human epidermal growth factor, hydrocortisone, vascular endothelial growth factor, heparin binding growth factor-B, long R3-insulin-like growth factor-1, ascorbic acid, gentamicin/amphotericin and 5% FBS. These cell were allowed to reach at least 90% confluency before subjected to experimental treatments. […] Tumor necrosis factor α was from R&D Systems.
All treatments, compound-added and controls were carried out in serum free media containing 0.2% albumin. Media from all conditions were collected and used for IL-6 ELISA.
IL-6 ELISA was carried out using human IL-6 DuoSet ELISA development kit as described by manufacturer (R&D Systems). Mouse anti-human Il-6 was used as the capture antibody (2 ug/ml) and biotinylated goat anti-human IL-6 (200 ng/ml) was used as the detection antibody. Culture media were incubated with capture antibody (in 96 well) for 2 h at room temperature. Wells were washed three times with wash buffer (0.05% tween-20 in phosphate buffered saline (PBS) pH 7.4) followed by incubation with detection antibody for 2 h at room temperature. Following three washes wells were incubated with Streptavidin-HRP for 20 min. Color development was read at 450 nm in a Microplate reader.

cells = experiment: Cytotoxicity / lactate dehydrogenase assay and visual observation of cells; assay type: cell-based
Experimental: Assays for determining the activity of compounds capable of cytotoxic activity include those taught in herein and others that are well known in the art. In general, to determine if there is cytotoxic activity associated with a compound, cells of a particular type, in a growing stage or a quiescient stage, are treated with the compound of interest. Various parameters of cell death or cessation are used to measure the effects of the compound. For example, the amount of nucleic acid or protein synthesis can be measured or visual observation of the state of the cells, such as release from the substrate, can be used to measure the state of the cells.
An appropriate number of cells are plated in four 96-well plates, one plate for “day 0” and three plates for days 1–3. Cells are treated with at least one compound of the present invention in varying concentrations with and without the apoptosis inducer cisplatin (2 μM) (“+cis” or “−cis”). Unteated cells are also assayed with and without cisplatin. After transfection, the plates are incubated at 37° C. overnight.
An appropriate number of cells are plated in four 96-well plates, one plate for “day 0” and three plates for days 1–3. Cells are treated with at least one compound of the present invention in varying concentrations. The negative control cells have normal media conditions, a duplicate set of wells is treated with the composition in which the compound is provided, but there is no added compound and the positive control cells are treated with the apoptosis inducer cisplatin (2 μM). All of the cells are transfected with a vector having a promoter that is responsive to apoptosis conditions. When apoptosis occurs, the promoter is turned on and the lactic dehydrogenase gene is activated and the enzyme protein is made and active. Activity is easily detected with a color change. After transfection, the plates are incubated at 37° C. overnight.
About 8 mls of warmed alpha MEM LDH lysis buffer (2% Triton X100) and about 8 mls of culture media (½ dilution) are combined. Two 96-well v-bottom plates are prepared, one labeled “lysis” and one labeled “supernatant.” To lyse the cells, about 200 μl Alpha MEM lysis buffer (diluted ½) is added to one test plate from which the supernatant has been removed and added to the plate labeled supernatant. After mixing, about 200 μl of lysed cells are transferred to the lysis plate. Both the lysis and supernatant plates are centrifuged at about 1600 rpm for about 10 min. After centrifugation, about 100 μl of both the supernatant or lysate is transferred to corresponding 96-well flat-bottomed plates.
The assay for cytotoxicity uses the Cytotoxicity Detection Kit (LDH) from Roche Diagnostics Corp. (Indianapolis, Ind.). Using the directionts provided, the dye solution is mixed and added each well of the lysate and supernatant plate and incubated for up to 20–25 min at 15–25° C. in the dark.

IL-6 [3] = experiment: TNF-α-induced IL-6 production determined by IL-6 ELISA in HAEC; assay type: cell-based, human; settings: Homo sapiens, 24 h; Compds tested @ 10 uM; HAEC, IL6; read-out: % IL6 production compare to TNF stimulation of IL6 (100%)

COc1ccc(Nc2nc(NC3CCCCCC3)nc(OCCOc3ccccc3F)n2)cc1Cl
Proliferation Data (result in words) [1]: Not active | Inflammation Data (result in words) (IL6; concentration not given): Not active

COc1ccc(Nc2nc(NC3CCCCCC3)nc(OCc3cccc(C)n3)n2)cc1Cl
Proliferation Data (result in words) [1]: Not active | inhibition at 10 µM (IL6): 60%

Oc1ccc(Nc2nc(Cl)nc(Cl)n2)cc1Cl
Proliferation Data (result in words) [1]: Not active | inhibition at 10 µM (IL6): 35%

Oc1ccc(Nc2nc(Cl)nc(NC3CCCCCC3)n2)cc1Cl
Proliferation Data (result in words) [1]: Not active | inhibition at 5 µM (IL6): 25% | inhibition at 10 µM (IL6): 25%

COc1ccc(Nc2nc(Cl)nc(NC3CC3)n2)cc1F
Proliferation Data (result in words) [1]: Not active | inhibition at 10 µM (IL6): 36%

COc1ccc(Nc2nc(NC3CC3)nc(N(C)C3CCN(C)CC3)n2)cc1F
Proliferation Data (result in words) [1]: Not active | inhibition at 10 µM (IL6): 25%

CCN1CCCC1CNc1nc(Nc2ccc(OC)c(F)c2)nc(NC2CC2)n1 (stereo not drawn)
Proliferation Data (result in words) [1]: Not active | inhibition at 10 µM (IL6): 23%

CCN1CCCC1CNc1nc(Nc2ccc(OC)c(F)c2)nc(Nc2ccc(OC)c(F)c2)n1 (stereo not drawn)
inhibition at 5 µM (IL6): 25% | inhibition at 10 µM (IL6): 35%

CCN1CCCC1CNc1nc(Nc2cnc3ccccc3c2)nc(NC2CCCCCC2)n1 (stereo not drawn) [Compound 3, N^2-cycloheptyl-N^4-[(1-ethyl-2-pyrrolidinyl)methyl]-N^6-(3-quinolinyl)-1,3,5-triazine-2,4,6-triamine]
activity at 10 µM (IL-6 [2]): 1% | Toxicity (cells; toxic or cause cell death): toxic

CCN1CCCC1CNc1nc(Nc2cccc3cccnc23)nc(NC2CCCCCC2)n1 (stereo not drawn) [Compound 5, N^2-cycloheptyl-N^4-[(1-ethyl-2-pyrrolidinyl)methyl]-N^6-(8-quinolinyl)-1,3,5-triazine-2,4,6-triamine]
Toxicity (cells; toxic or cause cell death): toxic

CCN1CCCC1CNc1nc(Nc2ccc(Cl)c(Cl)c2)nc(NC2CCCCCC2)n1 (stereo not drawn) [Compound 7, N^2-cycloheptyl-N^4-(3,4-dichlorophenyl)-N^6-[(1-ethyl-2-pyrrolidinyl)methyl]-1,3,5-triazine-2,4,6-triamine]
Toxicity (cells; toxic or cause cell death): toxic

CCN1CCCC1CNc1nc(Nc2ccc(F)c(F)c2)nc(NC2CCCCCC2)n1 (stereo not drawn) [Compound 8, N^2-cycloheptyl-N^4-(3,4-difluorophenyl)-N^6-[(1-ethyl-2-pyrrolidinyl)methyl]-1,3,5-triazine-2,4,6-triamine]
Toxicity (cells; toxic or cause cell death): toxic

CCN1CCCC1CNc1nc(Nc2ccc(OC(F)(F)F)cc2)nc(NC2CCCCCC2)n1 (stereo not drawn) [Compound 9, N^2-cycloheptyl-N^4-[(1-ethyl-2-pyrrolidinyl)methyl]-N^6-[4-(trifluoromethoxy)phenyl]-1,3,5-triazine-2,4,6-triamine]
Toxicity (cells; toxic or cause cell death): toxic

CCN1CCCC1CNc1nc(Nc2ccc(Cl)cc2)nc(NC2CCCCCC2)n1 (stereo not drawn) [Compound 12, N^2-(4-chlorophenyl)-N^4-cycloheptyl-N^6-[(1-ethyl-2-pyrrolidinyl)methyl]-1,3,5-triazine-2,4,6-triamine]
Toxicity (cells; toxic or cause cell death): toxic

CCN1CCCC1CNc1nc(Nc2ccc(Br)cc2)nc(NC2CCCCCC2)n1 (stereo not drawn) [Compound 13, N^2-(4-bromophenyl)-N^4-cycloheptyl-N^6-[(1-ethyl-2-pyrrolidinyl)methyl]-1,3,5-triazine-2,4,6-triamine]
Toxicity (cells; toxic or cause cell death): toxic

CCOC(=O)c1ccc(Nc2nc(NCC3CCCN3CC)nc(NC3CCCCCC3)n2)cc1 (stereo not drawn) [Compound 14, Ethyl 4-[(4-(cycloheptylamino)-6-{[(1-ethyl-2-pyrrolidinyl)methyl]amino}-1,3,5-triazin-2-yl)-amino]benzoate]
Toxicity (cells; toxic or cause cell death): toxic

CCN1CCCC1CNc1nc(Nc2cccc(F)c2)nc(NC2CCCCCC2)n1 (stereo not drawn) [Compound 16, N^2-cycloheptyl-N^4-[(1-ethyl-2-pyrrolidinyl)methyl]-N^6-(3-fluorophenyl)-1,3,5-triazine-2,4,6-triamine]
Toxicity (cells; toxic or cause cell death): toxic

CCN1CCCC1CNc1nc(Nc2ccccc2Cl)nc(NC2CCCCCC2)n1 (stereo not drawn) [Compound 21, N^2-(2-chlorophenyl)-N^4-cycloheptyl-N^6-[(1-ethyl-2-pyrrolidinyl)methyl]-1,3,5-triazine-2,4,6-triamine]
Toxicity (cells; toxic or cause cell death): toxic

CCN1CCCC1CNc1nc(Nc2ccccc2Br)nc(NC2CCCCCC2)n1 (stereo not drawn) [Compound 22, N^2-(2-bromophenyl)-N^4-cycloheptyl-N^6-[(1-ethyl-2-pyrrolidinyl)methyl]-1,3,5-triazine-2,4,6-triamine]
Toxicity (cells; toxic or cause cell death): toxic

CCN1CCCC1CNc1nc(Nc2ccc(Oc3ccccc3)cc2)nc(NC2CCCCCC2)n1 (stereo not drawn) [Compound 36, N^2-cycloheptyl-N^4-[(1-ethyl-2-pyrrolidinyl)methyl]-N^6-(4-phenoxyphenyl)-1,3,5-triazine-2,4,6-triamine]
Toxicity (cells; toxic or cause cell death): toxic

CCN1CCCC1CNc1nc(NC2CCCCCC2)nc(N(C)c2ccc(OC(F)(F)F)cc2)n1 (stereo not drawn) [Compound 47, N^2-cycloheptyl-N^4-[(1-ethyl-2-pyrrolidinyl)methyl]-N^6-methyl-N^6-[4-(trifluoromethoxy)phenyl]-1,3,5-triazine-2,4,6-triamine]
Toxicity (cells; toxic or cause cell death): toxic

CCN1CCCC1CNc1nc(Nc2ccc(OC)c(F)c2)nc(NC2CCCCCCC2)n1 (stereo not drawn) [Compound 54, N^2-cyclooctyl-N^4-[(1-ethyl-2-pyrrolidinyl)methyl]-N^6-(3-fluoro-4-methoxyphenyl)-1,3,5-triazine-2,4,6-triamine]
Toxicity (cells; toxic or cause cell death): toxic

CCN1CCCC1CNc1nc(Nc2ccc(OC)c(F)c2)nc(N2CCCC3CCCCC32)n1 (stereo not drawn) [Compound 59, N^2-[(1-ethyl-2-pyrrolidinyl)methyl]-N^4-(3-fluoro-4-methoxyphenyl)-N^6-octahydro-1(2H)-quinolinyl-1,3,5-triazine-2,4-diamine]
Toxicity (cells; toxic or cause cell death): toxic

COc1ccc(Nc2nc(NCCN(C)C)nc(NC3CCCCCC3)n2)cc1F [Compound 93, N^2-cycloheptyl-N^4-[2-(dimethylamino)ethyl]-N^6-(3-fluoro-4-methoxyphenyl)-1,3,5-triazine-2,4,6-triamine]
activity at 10 µM (IL-6 [2]): 6% | IC50 (IL-6 [2]; IL6, unit inferred, read-out: IC50 (AGE stimulation of IL6)): 3.36 µM | activity at 10 µM (IL-6 [3]): 13% | Toxicity (cells; toxic or cause cell death): toxic

COc1ccc(Nc2nc(OCC3CCCCC3)nc(N(C)C3CCN(C)CC3)n2)cc1Cl [Compound 119, N-(3-Chloro-4-methoxy-phenyl)-6-cyclohexylmethoxy-N′-methyl-N′-(1-methyl-piperidin-4-yl)-[1,3,5]triazine-2,4-diamine]
Toxicity (cells): toxic

CCN1CCCC1CNc1nc(Nc2ccc(OC)c(Cl)c2)nc(NC2CCCCCC2)n1 (stereo not drawn) [Compound 136, N^2-(3-chloro-4-methoxy-phenyl)-N^4-cycloheptyl-N^6-(1-ethyl-pyrrolidin-2-ylmethyl)-1,3,5-triazine-2,4,6-triamine]
Toxicity (cells; at 3 uM, very toxic): Nothing but celldebris at 3 uM verytoxic
